The text below walks through data of patent publication US20170343549A9, “METHODS FOR DETECTING AND MONITORING COLORECTAL CANCER” (REGENTS OF THE UNIVERSITY OF MINNESOTA, priority 2015, published 2017).

“Also recorded” adds a separate entry of the source.

What all share (type): in vivo, human
The subject of assay [1] is TBXAS1. As to the kind of experiment: Immunohistochemistry staining of TBXAS1 in polyps of FAP patients, aspirin users vs nonusers. The conditions noted are these: epithelial cells from polyps, aspirin intake, FIG. 4B. How it is done: (§1) All clinical studies using human subjects or human materials were approved by the Mayo Clinic review board. Volunteers were recruited by the Gastroenterology and Hepatology group at Mayo Clinic, Rochester, Minn. Individuals in the healthy control group (n=16) were normal patients who underwent colonoscopy screening. Familial adenomatous polyposis (FAP) patients who reported taking two or more standard (325 mg) aspirin tablets per week were classified as regular aspirin users (n=14) and those reporting consumption of less aspirin were classified as aspirin nonusers (n=24) (Chan et al., 2007. N Engl J Med 356 (21):2131-2142). Individuals in the sporadic colorectal cancer group (n=20) were patients who were diagnosed with colorectal cancer, but without a family history of colorectal cancer. Other inclusion criteria were as follows: age at 18-75 years old; gender ratio approximately 1:1; and a non-smoking history.
(§2) Surgically resected human colon tissues at all clinical stages were fixed in 10% formalin overnight at room temperature. […] Immunohistochemistry staining intensity was quantified by calculating the integrated optical density (IOD, sum) of area of interest using the Image Pro-Plus 7.0 software program (Media Cybernetics, Inc., Rockville, Md.).

Assay [2] has as its system TBXA2R. The assay is described as follows: Immunohistochemistry staining of TBXA2R in polyps of FAP patients, aspirin users vs nonusers. The settings on record: epithelial cells from polyps, aspirin intake, FIG. 4B. How it is done:
as §1, §2

Assay [3] has as its system the other four PGs. As to the kind of experiment: Circulating levels of the other four PGs in FAP patients, regular aspirin users vs nonusers (plasma enzyme immunoassay). The conditions noted are these: regular aspirin use vs nonusers, FIG. 4A. Here is the method: as §1, with “history. The measurement of PGs in plasma from patients was performed using enzyme immunoassay kits from Cayman Chemical Co. (Ann Arbor, Mich.) following the manufacturer's instructions. Briefly, blood was collected from a vein in the arm just inside the elbow using a 22 gauge needle. Before blood collection, the tourniquet was applied about three inches above the selected puncture site. […]” for “history.”

In assay [4] the test system is circulating TXA2. The assay is described as follows: Circulating TXA2 level in FAP patients, regular aspirin users vs nonusers (plasma enzyme immunoassay). The conditions noted are these: regular aspirin use (two or more 325 mg tablets per week, n=14) vs nonusers (n=24), FIG. 4A. How it is done:
as §1, with “history. The measurement of PGs in plasma from patients was performed using enzyme immunoassay kits from Cayman Chemical Co. (Ann Arbor, Mich.) following the manufacturer's instructions. Briefly, blood was collected from a vein in the arm just inside the elbow using a 22 gauge needle. Before blood collection, the tourniquet was applied about three inches above the selected puncture site. […]” for “history.”

Assay [5] concerns Ki-67. As to the kind of experiment: Immunohistochemistry staining of Ki-67 in polyps of FAP patients, aspirin users vs nonusers. The settings on record: epithelial cells from polyps, aspirin intake, FIG. 4B. Here is the method: as §1, §2

Regarding `CC(=O)Oc1ccccc1C(=O)O` [aspirin], the “expression of TBXAS1” value in assay [1] is on record as “lower expression”. The “expression of TBXA2R” value in assay [2] was “lower expression”. Moreover, the “levels of the other four PGs” value in assay [3] is recorded as “little effect”. In assay [4], the “circulating TXA2 level” value was “significant (p<0.001) decrease; also recorded: significantly decreased”. The “expression of Ki-67” value in assay [5] is listed as “lower expression”.
